# According to PubChem BioAssay (NCI):
#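 Each compound was tested at five concentrations against cells in 96-well plates for 48 hours. Abbreviation: GI50, concentration required for 50% inhibition of growth. Definition used: TGI = concentration required for complete inhibition of growth.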
# Key:
# Experiment in all cases: NCI-60 cell line screen, 48 h
# ACHN renal = system: ACHN renal
# PC-3 prostate = system: PC-3 prostate
# K-562 leukemia = system: K-562 leukemia
# SK-OV-3 ovarian = system: SK-OV-3 ovarian
# T-47D breast = system: T-47D breast
# MOLT-4 leukemia = system: MOLT-4 leukemia
# SN12C renal = system: SN12C renal
# UACC-257 melanoma = system: UACC-257 melanoma
SMILES,GI50 (ACHN renal),TGI (ACHN renal),GI50 (PC-3 prostate),TGI (PC-3 prostate),GI50 (K-562 leukemia),TGI (K-562 leukemia),GI50 (SK-OV-3 ovarian),TGI (SK-OV-3 ovarian),GI50 (T-47D breast),TGI (T-47D breast),GI50 (MOLT-4 leukemia),TGI (MOLT-4 leukemia),GI50 (SN12C renal),TGI (SN12C renal),GI50 (UACC-257 melanoma),TGI (UACC-257 melanoma)
CC(=O)OC12C=C(C)C(C(C)C1)C1C(=O)N(CCN3CCOCC3)C(=O)C12 (stereo not given),> 100 µM,> 100 µM,> 100 µM,> 100 µM,> 100 µM,> 100 µM,> 100 µM,> 100 µM,> 100 µM,> 100 µM,> 100 µM,> 100 µM,> 100 µM,> 100 µM,> 100 µM,> 100 µM
O=S(=O)(c1ccc(Cl)cc1)C(Cl)(Cl)Cl,1.43 µM,> 100 µM,4.73 µM,> 62.5 µM,1.6 µM,> 100 µM,14 µM,67 µM,1.39 µM,> 33.1 µM,0.91 µM,> 44.3 µM,3.54 µM,30.3 µM,2.1 µM,11.8 µM
O=C1c2cccnc2C(=O)c2c1c(C(=O)NCCCN1CCCCC1)c1ccccn21,0.464 µM,2.84 µM,1.49 µM,7.21 µM,1.22 µM,> 100 µM,2.06 µM,6.7 µM,1.59 µM,4.34 µM,0.867 µM,> 100 µM,0.472 µM,1.84 µM,0.813 µM,2.18 µM
Fc1ccc(/C=N/n2c(-c3ccc(F)c(Cl)c3)nn(CNc3ccccc3C(F)(F)F)c2=S)cc1,81.1 µM,> 100 µM,37.4 µM,> 100 µM,37.6 µM,> 100 µM,> 100 µM,> 100 µM,41.3 µM,> 100 µM,28.4 µM,> 100 µM,39.3 µM,> 100 µM,42.5 µM,> 100 µM
CCCN(CCS(C)(=O)=O)Cc1ccc(-c2ccc3ncnc(Nc4ccc(OCc5cccc(F)c5)c(Cl)c4)c3c2)o1,1.23 µM,> 25 µM,> 25 µM,> 25 µM,9.49 µM,> 25 µM,0.0197 µM,0.192 µM,1.82 µM,24.7 µM,7.31 µM,> 25 µM,> 25 µM,> 25 µM,> 25 µM,> 25 µM
COc1ccccc1-c1cc(=O)c2cc(C)cnc2[nH]1,–,> 100 µM,27 µM,> 100 µM,–,61.3 µM,–,> 100 µM,–,> 100 µM,–,> 100 µM,–,> 100 µM,–,> 100 µM
CN1CCN(C(=O)c2cc(-c3ccc4ncnc(N5CCc6cc(F)c(Cl)cc65)c4c3)cnc2N)CC1,0.27 µM,5.78 µM,0.176 µM,3.78 µM,0.234 µM,11.7 µM,0.382 µM,2.21 µM,0.0651 µM,1.84 µM,0.127 µM,0.664 µM,0.15 µM,10.5 µM,0.334 µM,3.52 µM
CC(=O)/C=C/c1cn(C(=O)OC(C)(C)C)c2ccc(Br)cc12,11.6 µM,24.8 µM,18.2 µM,> 79.2 µM,18 µM,> 54 µM,20.6 µM,46.7 µM,17.4 µM,54.4 µM,41.6 µM,> 100 µM,13.8 µM,36.4 µM,> 70.3 µM,> 100 µM
O=S(=O)(Nc1cc(Sc2cccc3cccnc23)c(O)c2ccccc12)c1ccc(F)cc1,1.34 µM,7.78 µM,0.74 µM,12.1 µM,1.37 µM,9.52 µM,3.23 µM,13.4 µM,1.75 µM,4.67 µM,0.432 µM,3.21 µM,0.97 µM,3.61 µM,1.75 µM,4.56 µM
O=C1/C(=C/c2ccccc2[N+](=O)[O-])Cc2ccccc21,1.87 µM,4.87 µM,1.83 µM,5.33 µM,3.4 µM,> 100 µM,6.86 µM,38.4 µM,2.22 µM,> 100 µM,2.92 µM,9.04 µM,2.54 µM,9.17 µM,1.83 µM,4.35 µM
CN=c1ccc2nc3ccc(N)cc3sc-2c1,2.25 µM,17.4 µM,0.276 µM,8.85 µM,1.12 µM,16.7 µM,5.03 µM,24.7 µM,1.69 µM,13.2 µM,1.77 µM,6.86 µM,2.47 µM,12.5 µM,1.18 µM,5.04 µM
COc1ccc2c(c1)N(CCO)C1=C(C(=O)OC1)C2c1cccc(F)c1 (stereo not given),0.386 µM,> 50 µM,0.232 µM,> 50 µM,0.199 µM,> 50 µM,1.26 µM,> 50 µM,1.95 µM,> 50 µM,0.538 µM,> 50 µM,0.776 µM,> 50 µM,> 50 µM,> 50 µM
CCc1ccc2c(c1)N(CCO)C1=C(C(=O)OC1)C2c1cccc(Br)c1 (stereo not given),1.61 µM,20.4 µM,0.491 µM,16.2 µM,0.368 µM,14.7 µM,0.42 µM,10.1 µM,0.54 µM,19.6 µM,0.62 µM,19.3 µM,1.35 µM,18.9 µM,0.623 µM,19.6 µM
C[C@@H]1CN(Cc2ccc(F)cc2)[C@@H](C)CN1C(=O)c1cc2c(C(=O)C(=O)N(C)C)cn(C)c2cc1Cl,16.6 µM,> 54.6 µM,18.9 µM,> 77.7 µM,20.8 µM,88.6 µM,22.7 µM,> 79.6 µM,5.97 µM,65.6 µM,17.9 µM,45.5 µM,15.7 µM,43.5 µM,15.7 µM,34.7 µM
COc1ccc(-c2nc(Nc3cc(C)[nH]n3)c3ccccc3n2)cc1,0.801 µM,> 100 µM,1.48 µM,66.1 µM,3.25 µM,> 100 µM,1.39 µM,> 100 µM,1.59 µM,> 25.6 µM,3.67 µM,58.5 µM,2.01 µM,> 100 µM,13 µM,65.2 µM
CN(C)CCCn1c(=O)c2ccccc2c2ccccc21,4.84 µM,> 100 µM,18.2 µM,54.2 µM,21.8 µM,> 100 µM,26.6 µM,> 100 µM,25.2 µM,> 100 µM,6.46 µM,> 100 µM,16.9 µM,> 100 µM,12.6 µM,26.6 µM

SMILES,GI50 (ACHN renal),TGI (ACHN renal),GI50 (PC-3 prostate),TGI (PC-3 prostate),GI50 (K-562 leukemia),TGI (K-562 leukemia),GI50 (SK-OV-3 ovarian),TGI (SK-OV-3 ovarian),GI50 (T-47D breast),TGI (T-47D breast),GI50 (MOLT-4 leukemia),TGI (MOLT-4 leukemia),GI50 (SN12C renal),TGI (SN12C renal),GI50 (UACC-257 melanoma),TGI (UACC-257 melanoma)
CO/N=C(\COc1ccc2c(c1)[nH]c1ccccc12)c1ccc(F)cc1,35.7 µM,> 100 µM,30.6 µM,> 100 µM,–,–,28.7 µM,> 100 µM,> 100 µM,> 100 µM,–,–,> 100 µM,> 100 µM,48.7 µM,> 100 µM
NC(CSC1c2ccccc2-c2ccccc21)C(=O)O (stereo not given),–,> 100 µM,–,> 100 µM,–,> 100 µM,–,> 100 µM,–,> 100 µM,–,> 100 µM,–,> 100 µM,–,> 100 µM
O=C1CCC(N2Cc3cc(CNC(=O)C(F)(F)c4ccc(Cl)cc4)ccc3C2=O)C(=O)N1 (stereo not given),> 100 µM,> 100 µM,4.71 µM,> 100 µM,> 96.3 µM,> 100 µM,> 100 µM,> 100 µM,0.442 µM,> 100 µM,0.0148 µM,–,> 100 µM,> 100 µM,> 100 µM,> 100 µM
CO[C@H]1CC(O[C@@H]2/C(C)=C/C[C@@H]3C[C@@H](C[C@]4(C=C[C@H](C)[C@@H](C5CCCCC5)O4)O3)OC(=O)[C@@H]3C=C(C)[C@@H](O)[C@H]4OC/C(=C\C=C\[C@@H]2C)[C@]43O)O[C@@H](C)C1O[C@H]1C[C@H](OC)[C@@H](O)[C@H](C)O1 (stereo not given in full),1.66 µM,3.04 µM,1.08 µM,2.68 µM,–,–,1.97 µM,3.61 µM,1.65 µM,3.43 µM,2.05 µM,4.83 µM,–,–,–,–
COc1cc2c3c(n(C)c(=O)c2cc1OC)-c1cc2c(cc1/C3=C\CCCCN1C(=O)c3ccccc3C1=O)OCO2,1.8 µM,10.9 µM,10.5 µM,51.6 µM,23.4 µM,> 100 µM,13.5 µM,45.7 µM,–,–,2.07 µM,13.4 µM,–,–,23.4 µM,> 100 µM
O=C(OCc1ccc2ccccc2n1)c1cn(C2CC2)c2cc(N3CCN(Cc4ccc5ccccc5n4)CC3)c(F)cc2c1=O,> 72.4 µM,> 100 µM,> 44.6 µM,> 80.2 µM,> 53.5 µM,> 100 µM,> 80.7 µM,> 100 µM,12.9 µM,> 100 µM,> 100 µM,> 100 µM,> 100 µM,> 100 µM,> 94.2 µM,> 100 µM
O=C1c2ccccc2-c2cc([N+](=O)[O-])c([N+](=O)[O-])cc21,–,3.07 µM,–,2.93 µM,–,8.04 µM,–,6.51 µM,–,2.69 µM,–,4.36 µM,–,3.42 µM,–,2.74 µM
CN1C(=O)N(C)C2C1NN=c1s/c(=C\c3ccc(C(F)(F)F)cc3)c(=O)n12 (stereo not given),2.08 µM,38.5 µM,0.677 µM,> 100 µM,0.431 µM,> 100 µM,3.96 µM,46.9 µM,1.72 µM,> 100 µM,2.55 µM,> 100 µM,3.89 µM,> 100 µM,14.5 µM,> 100 µM
NNC(=O)CS(=O)(=O)Nc1ncccn1,–,> 100 µM,–,> 100 µM,–,> 100 µM,–,> 100 µM,–,> 100 µM,–,–,–,> 100 µM,–,> 100 µM
C/C(=C\c1ccc2ccccc2c1)[N+](=O)[O-],1.79 µM,3.34 µM,1.89 µM,3.89 µM,2.23 µM,7.99 µM,14.8 µM,28.7 µM,–,–,2.61 µM,6.48 µM,1.74 µM,3.23 µM,1.56 µM,2.9 µM
COc1cc2c(cc1C1COc3cc4occc4cc3C1=O)OCO2 (stereo not given),–,> 100 µM,–,> 100 µM,–,–,–,> 100 µM,–,> 100 µM,–,> 100 µM,–,> 100 µM,–,> 100 µM
COc1ccc2cc1Oc1ccc(cc1)C[C@H]1c3c(cc4c(c3Oc3cc5c(cc3OC)CCN(C)[C@@H]5C2)OCO4)CCN1C,4.59 µM,10.6 µM,2.08 µM,11.4 µM,–,–,6.23 µM,12.5 µM,0.988 µM,2.05 µM,3.92 µM,12.9 µM,3.55 µM,10.6 µM,0.727 µM,1.46 µM
C1CCC([PH+](C2CCCCC2)C2CCCCC2[PH+](C2CCCCC2)C2CCCCC2)CC1.[Au].[CH-]1CCCCC1CC1CCCC[N-]1 (stereo not given),0.902 µM,2.1 µM,0.283 µM,1.93 µM,0.246 µM,> 100 µM,0.355 µM,1.36 µM,–,–,–,–,0.285 µM,2.93 µM,0.323 µM,1.94 µM
O=C(/C=C\c1cccc([N+](=O)[O-])c1)/C=C/c1cccc([N+](=O)[O-])c1,4.47 µM,> 100 µM,3.17 µM,> 100 µM,–,–,20 µM,> 100 µM,> 100 µM,> 100 µM,–,–,67 µM,> 100 µM,21.4 µM,> 100 µM
O=C1c2c(c3c4ccccc4[nH]c3c3ccc4ccccc4c23)C(=O)N1CCN1CCNCC1,1.56 µM,2.9 µM,1.68 µM,3.67 µM,1.44 µM,3.09 µM,1.86 µM,3.58 µM,–,–,0.487 µM,1.88 µM,1.68 µM,3.13 µM,1.87 µM,3.82 µM
COc1cc(N2C(=O)[C@H](O)C2c2ccc(SC)cc2)cc(OC)c1OC (stereo not given in full),< 0.01 µM,60.5 µM,< 0.01 µM,> 100 µM,< 0.01 µM,> 100 µM,0.0142 µM,> 100 µM,–,–,0.0334 µM,53.4 µM,0.0482 µM,> 100 µM,14.6 µM,> 100 µM
